Source: patent US20110190503A1, “Thiazolopyridin-2-yloxy-phenyl and thiazolopyrazin-2-yloxy-phenyl amines as modulators of leukotriene A4 hydrolase” (Janssen Pharmaceutical NV, priority 2008, published 2011)
Structures can show the parent of a compound that is named as a salt.

Target: T1, recombinant human LTA4 hydrolase (rhLTA4H) (Homo sapiens, UniProt P09960)
T1 construct: made in house; host or cells: Spodoptera frugiperda (Sf-9) cells, recombinant baculovirus (pFastBac1)
T1 sequence (P09960 1-611): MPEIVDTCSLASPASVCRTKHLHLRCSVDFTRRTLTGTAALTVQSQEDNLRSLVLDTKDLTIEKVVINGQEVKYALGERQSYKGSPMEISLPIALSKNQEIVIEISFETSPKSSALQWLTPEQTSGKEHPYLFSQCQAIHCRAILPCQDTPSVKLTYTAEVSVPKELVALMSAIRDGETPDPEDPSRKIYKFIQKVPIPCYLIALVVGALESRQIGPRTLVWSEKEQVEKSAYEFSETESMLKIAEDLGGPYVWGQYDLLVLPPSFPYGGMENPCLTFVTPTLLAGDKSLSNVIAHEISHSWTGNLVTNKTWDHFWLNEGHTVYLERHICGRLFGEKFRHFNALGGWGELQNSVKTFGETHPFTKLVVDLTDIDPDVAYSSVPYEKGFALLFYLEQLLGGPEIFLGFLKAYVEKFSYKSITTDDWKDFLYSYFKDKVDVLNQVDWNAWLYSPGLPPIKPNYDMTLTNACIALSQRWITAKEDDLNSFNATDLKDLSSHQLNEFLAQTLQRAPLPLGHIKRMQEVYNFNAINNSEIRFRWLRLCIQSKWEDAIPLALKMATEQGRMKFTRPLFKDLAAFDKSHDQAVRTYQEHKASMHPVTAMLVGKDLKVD
Experiment: Recombinant human LTA4 hydrolase assay for LTA4 hydrolase inhibitor activity
Assay type: biochemical
Conditions: rhLTA4H, LTA4 substrate, LTB4 by immunoassay; single determination or average; read-out: IC50
Protocol: Assay 1: Recombinant Human LTA4 Hydrolase Assay for LTA4 Hydrolase Inhibitor Activity
Compounds of the present invention were tested for LTA4 hydrolase inhibitor activity against recombinant human LTA4 hydrolase (rhLTA4H). Vectors were prepared and used to express rhLTA4H essentially as follows: LTA4 hydrolase encoding DNA was amplified by polymerase chain reaction (PCR) using a human placental cDNA library as a template. […] The amplified 1.9 kb DNA fragment encoding LTA4 hydrolase was isolated and cloned into the pFastBac1 vector (Invitrogen). Recombinant baculovirus was generated as described by the manufacturer, and used to infect Spodoptera frugiperda (Sf-9) cells. […] The purified enzyme solution was adjusted to contain 0.29 mg/mL LTA4 hydrolase, 50 mM Tris (pH 8.0), 150 mM NaCl, 5 mM dithiothreitol, 50% glycerol, and EDTA-free Complete protease inhibitor cocktail (Roche).
LTA4 substrate was prepared from the methyl ester of LTA4 (Cayman Chemical) by treatment with 67 equiv of NaOH under nitrogen at rt for 40 min. The LTA4 substrate in its free acid form was kept frozen at −80° C. until needed. Each compound was diluted to different concentrations in assay buffer (from Assay Designs) containing 10% DMSO. A 25-μL aliquot of each compound dilution was incubated for 10 min at rt with an equal volume of assay buffer containing 10 ng of recombinant human LTA4H. The solution was then adjusted to 200 μL with assay buffer. […] Each reaction was carried out at rt for 30 min. The reaction was stopped by diluting 10 μL of the reaction mixture with 200 μL of assay buffer. LTB4 was quantified in the diluted sample by a commercially available enzyme-linked immunoassay (Cayman Chemical Co.), as recommended by the manufacturer. Positive controls, under essentially identical conditions but without addition of an inhibitor compound, and negative controls, containing all assay components except enzyme, were routinely run in each experiment. IC50 values were determined by nonlinear regression of the activity data at different compound concentrations using Graphpad Prism 4.0, one site binding competition.
The values presented here are the result of a single determination or an average of two or more determinations, as indicated in parentheses following each value. For compounds tested three or more times, the average value is followed by the standard deviation

## Cc1cnc2nc(Oc3ccc(CN4CCN(C5CCC5)CC4)cc3)sc2c1 [Example 183, 2-({4-[(4-Cyclobutylpiperazin-1-yl)methyl]phenyl}oxy)-6-methyl[1,3]thiazolo[4,5-b]pyridine]
  IC50: 0.067 µM

## CNC(=O)C1CCN(CCOc2ccc(Oc3nc4nccc(C)c4s3)cc2)CC1 [Example 165, N-Methyl-1-[2-({4-[(7-methyl[1,3]thiazolo[4,5-b]pyridin-2-yl)oxy]phenyl}oxy)ethyl]piperidine-4-carboxamide]
  IC50: 0.053 µM

## CC(C)(C)C1CCN(Cc2ccc(Oc3nc4ncc(Cl)cc4s3)cc2)CC1 [Example 218, 2-{4-[(4-tert-Butylpiperidin-1-yl)methyl]phenoxy}-6-chloro[1,3]thiazolo[4,5-b]pyridine]
  IC50: 0.212 µM

## O=C(c1cccs1)N1CCN(Cc2ccc(Oc3nc4ncc(Cl)cc4s3)cc2)CC1 [Example 187, 6-Chloro-2-[(4-{[4-(2-thienylcarbonyl)piperazin-1-yl]methyl}phenyl)oxy][1,3]thiazolo[4,5-b]pyridine]
  IC50: 0.29 µM

## CN1CCN(C(=O)C2CCN(Cc3ccc(Oc4nc5ccncc5s4)cc3)CC2)CC1 [Example 227, 2-[4-({4-[(4-Methylpiperazin-1-yl)carbonyl]piperidin-1-yl}methyl)phenoxy][1,3]thiazolo[5,4-c]pyridine]
  IC50: 0.748 µM

## CC(C)(CO)NC(=O)C1CCN(CCOc2ccc(Oc3nc4cnccc4s3)cc2)CC1 [Example 161, N-(2-Hydroxy-1,1-dimethylethyl)-1-(2-{[4-([1,3]thiazolo[4,5-c]pyridin-2-yloxy)phenyl]oxy}ethyl)piperidine-4-carboxamide]
  IC50: 0.535 µM

## NC(=O)N[C@@H]1C[C@H]2CC[C@@H](C1)N2Cc1ccc(Oc2nc3ccncc3s2)cc1 [Example 200, meso-1-{(3-exo)-8-[4-([1,3]Thiazolo[5,4-c]pyridin-2-yloxy)benzyl]-8-azabicyclo[3.2.1]oct-3-yl}urea]
  IC50: 0.374 µM

## Cc1ccnc2nc(Oc3ccc(OCCN4CCN(C(=O)c5ccncc5)CC4)cc3)sc12 [Example 143, 7-Methyl-2-(4-{2-[4-(pyridin-4-ylcarbonyl)piperazin-1-yl]ethoxy}phenoxy)[1,3]thiazolo[4,5-b]pyridine]
  IC50: 0.193 µM

## NC(=O)N1[C@@H]2CC[C@H]1CN(Cc1ccc(Oc3nc4cnccc4s3)cc1)C2 [Example 202, meso-3-[4-([1,3]Thiazolo[4,5-c]pyridin-2-yloxy)benzyl]-3,8-diazabicyclo[3.2.1]octane-8-carboxamide]
  IC50: ~9 µM

## CN(Cc1ccc(Oc2nc3ccncc3s2)cc1)C1CCCCC1 [Example 175, N-Methyl-N-[4-([1,3]thiazolo[5,4-c]pyridin-2-yloxy)benzyl]cyclohexanamine]
  IC50: 0.791 µM

## NC(=O)N1C[C@@H]2C[C@H]1CN2CCc1ccc(Oc2nc3cccnc3s2)cc1 [Example 78, (1S,4S)-5-{2-[4-([1,3]Thiazolo[5,4-b]pyridin-2-yloxy)phenyl]ethyl}-2,5-diazabicyclo[2.2.1]heptane-2-carboxamide]
  IC50: 0.16 µM

## c1cc2sc(Oc3ccc(CN4CCCCC4)cc3)nc2cn1 [Example 133, 2-[4-(Piperidin-1-ylmethyl)phenoxy][1,3]thiazolo[4,5-c]pyridine]
  IC50: 1.87 µM

## Clc1cnc2nc(Oc3ccc(CN4CCSCC4)cc3)sc2c1 [Example 189, 6-Chloro-2-{[4-(thiomorpholin-4-ylmethyl)phenyl]oxy}[1,3]thiazolo[4,5-b]pyridine]
  IC50: 0.308 µM

## NC(=O)C1CCN(Cc2ccc(Oc3nc4cccnc4s3)cc2)CC1 [Example 113, 1-[4-([1,3]Thiazolo[5,4-b]pyridin-2-yloxy)benzyl]piperidine-4-carboxamide]
  IC50: 0.57 µM

## CN1CCN(Cc2ccc(Oc3nc4cnccc4s3)cc2)CC1=O [Example 224, 1-Methyl-4-[4-([1,3]thiazolo[4,5-c]pyridin-2-yloxy)benzyl]piperazin-2-one]
  IC50: 4.85 µM

## CC(=O)N1[C@@H]2CC[C@H]1C[C@H](NCc1ccc(Oc3nc4ncccc4s3)cc1)C2 [Example 170, meso-(3-exo)-8-Acetyl-N-{[4-([1,3]thiazolo[4,5-b]pyridin-2-yloxy)phenyl]methyl}-8-azabicyclo[3.2.1]octan-3-amine]
  IC50: 0.029 µM

## CS(=O)(=O)N[C@@H]1C[C@H]2CC[C@@H](C1)N2Cc1ccc(Oc2nc3ccncc3s2)cc1 [Example 249, meso-N-{(3-exo)-8-[4-([1,3]Thiazolo[5,4-c]pyridin-2-yloxy)benzyl]-8-azabicyclo[3.2.1]oct-3-yl}methanesulfonamide]
  IC50: 0.141 µM

## Cc1ccnc2nc(Oc3ccc(OCCN4CCC(O)(c5ccccn5)CC4)cc3)sc12 [Example 158, 1-(2-{4-[(7-Methyl[1,3]thiazolo[4,5-b]pyridin-2-yl)oxy]phenoxy}ethyl)-4-pyridin-2-ylpiperidin-4-ol]
  IC50: 0.194 µM

## O=C1CCCN1C1CCN(CCc2ccc(Oc3nc4cccnc4s3)cc2)CC1 [Example 68, 1-(1-{2-[4-([1,3]Thiazolo[5,4-b]pyridin-2-yloxy)phenyl]ethyl}piperidin-4-yl)pyrrolidin-2-one]
  IC50: 0.28 µM

## CCOC(=O)CN(Cc1ccccc1)Cc1ccc(Oc2nc3ncccc3s2)cc1 [Example 273, Ethyl N-benzyl-N-[4-([1,3]thiazolo[4,5-b]pyridin-2-yloxy)benzyl]glycinate]
  IC50: 0.176 µM

## Cc1ccnc2sc(Oc3ccc(CN4CCCCC4)cc3)nc12 [Example 280, 7-Methyl-2-[4-(piperidin-1-ylmethyl)phenoxy][1,3]thiazolo[5,4-b]pyridine]
  IC50: > 10 µM

## CC(=O)N1[C@@H]2CC[C@H]1CN(CCc1ccc(Oc3nc4nccc(C)c4s3)cc1)C2 [Example 209, meso-2-(4-{2-[8-Acetyl-3,8-diazabicyclo[3.2.1]oct-3-yl]ethyl}phenoxy)-7-methyl[1,3]thiazolo[4,5-b]pyridine]
  IC50: 0.157 µM

## CN(C)C1CCN(Cc2ccc(Oc3nc4ncccc4s3)cc2)CC1 [Example 259, N,N-Dimethyl-1-[4-([1,3]thiazolo[4,5-b]pyridin-2-yloxy)benzyl]piperidin-4-amine]
  IC50: 0.14 µM

## OC1(c2ccc(Cl)cc2)CCN(CCOc2ccc(Oc3nc4nccnc4s3)cc2)CC1 [Example 25, 4-(4-Chlorophenyl)-1-{2-[4-([1,3]thiazolo[4,5-b]pyrazin-2-yloxy)phenoxy]ethyl}piperidin-4-ol]
  IC50: 0.16 µM

## NC(=O)N1[C@@H]2CC[C@H]1CN(CCc1ccc(Oc3nc4ncccc4s3)cc1)C2 [Example 210, meso-3-{2-[4-([1,3]Thiazolo[4,5-b]pyridin-2-yloxy)phenyl]ethyl}-3,8-diazabicyclo[3.2.1]octane-8-carboxamide hydrochloride]
  IC50: 0.006 µM

## Cc1cnc2nc(Oc3ccc(OCCN4CCC(NC(=O)C(C)C)CC4)cc3)sc2c1 [Example 140, 2-Methyl-N-[1-(2-{4-[(6-methyl[1,3]thiazolo[4,5-b]pyridin-2-yl)oxy]phenoxy}ethyl)piperidin-4-yl]propanamide]
  IC50: 0.138 µM

## O=C(O)C1CCN(CCOc2ccc(Oc3nc4cccnc4s3)cc2)CC1 [Example 44, 1-{2-[4-([1,3]Thiazolo[5,4-b]pyridin-2-yloxy)phenoxy]ethyl}piperidine-4-carboxylic acid]
  IC50: 0.66 µM

## Cc1ccnc2nc(Oc3ccc(CN4[C@@H]5CC[C@H]4CN(S(C)(=O)=O)C5)cc3)sc12 [Example 205, meso-7-Methyl-2-(4-{[3-(methylsulfonyl)-3,8-diazabicyclo[3.2.1]oct-8-yl]methyl}phenoxy)[1,3]thiazolo[4,5-b]pyridine]
  IC50: 0.049 µM

## OCCCN(CCOc1ccc(Oc2nc3ccncc3s2)cc1)C1CC1 [Example 208, 3-(Cyclopropyl{2-[4-([1,3]thiazolo[5,4-c]pyridin-2-yloxy)phenoxy]ethyl}amino)propan-1-ol]
  IC50: 3.9 µM
